From patent US12655116B2, “Substituted isophthalic acid diamides” (Bayer Aktiengesellschaft, priority 2020, dated 2026)

Tests used:
SETVI [1] = assay: Post-emergence herbicidal action against SETVI; type: in vivo, Setaria viridis
Procedure, shortened: (§1)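 Spray, one-leaf stage: WP or EC compound in water, 600–800 l/ha, 0.2% wetting agent. Plants held about 3 weeks in the greenhouse, then visually rated in percent of kill compared with untreated controls.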

AVEFA [2] = assay: Post-emergence herbicidal action against AVEFA; type: in vivo, Avena fatua; settings: 20 g/ha, visual assessment about 3 weeks after treatment, 100% = plants have died, 0% = like control plants
Procedure, shortened: as §1

MATIN [3] = assay: Pre-emergence herbicidal action against MATIN; type: in vivo, Matricaria inodora
Procedure, shortened: (§2)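 Pre-emergence soil-surface spray of formulated compound (WP or EC; 600 to 800 l/ha; 0.2% wetting agent) over seeds sown in sandy loam. After 3 weeks under greenhouse conditions, damage is estimated visually in percent against untreated plants.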

VIOTR [4] = assay: Pre-emergence herbicidal action against VIOTR; type: in vivo, Viola tricolor
Procedure, shortened: as §2

PHBPU [5] = assay: Pre-emergence herbicidal action against PHBPU; type: in vivo, Pharbitis purpurea; settings: dosage 80 g/ha
Procedure, shortened: as §2

AMARE [6] = assay: Pre-emergence herbicidal action against AMARE; type: in vivo, Amaranthus retroflexus
Procedure, shortened: as §2

ABUTH [7] = assay: Pre-emergence herbicidal action against ABUTH; type: in vivo, Abutilon theophrasti
Procedure, shortened: as §2

ABUTH [8] = assay: Post-emergence herbicidal action against ABUTH; type: in vivo, Abutilon theophrasti; settings: visual assessment about 3 weeks after treatment vs untreated controls
Procedure, shortened: as §1

AMARE [9] = assay: Post-emergence herbicidal action against AMARE; type: in vivo, Amaranthus retroflexus; settings: 20 g/ha, visual assessment about 3 weeks after treatment, 100% = plants have died, 0% = like control plants
Procedure, shortened: as §1

HORMU [10] = assay: Post-emergence herbicidal action against HORMU; type: in vivo, Hordeum murinum; settings: dosage 20 g/ha
Procedure, shortened: as §1

STEME [11] = assay: Post-emergence herbicidal action against STEME; type: in vivo, Stellaria media
Procedure, shortened: as §1

VIOTR [12] = assay: Post-emergence herbicidal action against VIOTR; type: in vivo, Viola tricolor
Procedure, shortened: as §1

MATIN [13] = assay: Post-emergence herbicidal action against MATIN; type: in vivo, Matricaria inodora
Procedure, shortened: as §1

ALOMY [14] = assay: Pre-emergence herbicidal action against ALOMY; type: in vivo, Alopecurus myosuroides; settings: pre-emergence
Procedure, shortened: as §2

ECHCG [15] = assay: Pre-emergence herbicidal action against ECHCG; type: in vivo, Echinochloa crus-galli
Procedure, shortened: as §2

DIGSA [16] = assay: Pre-emergence herbicidal action against DIGSA; type: in vivo, Digitaria sanguinalis
Procedure, shortened: as §2

ECHCG [17] = assay: Post-emergence herbicidal action against ECHCG; type: in vivo, Echinochloa crus-galli
Procedure, shortened: as §1

STEME [18] = assay: Pre-emergence herbicidal action against STEME; type: in vivo, Stellaria media
Procedure, shortened: as §2

PHBPU [19] = assay: Post-emergence herbicidal action against PHBPU; type: in vivo, Pharbitis purpurea
Procedure, shortened: as §1

AVEFA [20] = assay: Pre-emergence herbicidal action against AVEFA; type: in vivo, Avena fatua; settings: pre-emergence
Procedure, shortened: as §2

DIGSA [21] = assay: Post-emergence herbicidal action against DIGSA; type: in vivo, Digitaria sanguinalis
Procedure, shortened: as §1

VERPE [22] = assay: Post-emergence herbicidal action against VERPE; type: in vivo, Veronica persica; settings: 20 g/ha
Procedure, shortened: as §1

LOLRI = assay: Pre-emergence herbicidal action against LOLRI; type: in vivo, Lolium rigidum; settings: 80 g/ha
Procedure, shortened: as §2

SETVI [23] = assay: Pre-emergence herbicidal action against SETVI; type: in vivo, Setaria viridis
Procedure, shortened: as §2

ALOMY [24] = assay: Post-emergence herbicidal action against ALOMY; type: in vivo, Alopecurus myosuroides; settings: dosage 20 g/ha, visual assessment about 3 weeks after treatment vs untreated controls
Procedure, shortened: as §1

HORMU [25] = assay: Pre-emergence herbicidal action against HORMU; type: in vivo, Hordeum murinum; settings: 80 g/ha, pre-emergence
Procedure, shortened: as §2

VERPE [26] = assay: Pre-emergence herbicidal action against VERPE; type: in vivo, Veronica persica; settings: dosage 80 g/ha
Procedure, shortened: as §2

POLCO = assay: Pre-emergence herbicidal action against POLCO; type: in vivo, Polygonum convolvulus; settings: Fallopia convolvulus, 504 h, dosage 80 g/ha
Procedure, shortened: as §2

[27] = 80 g/ha, scored visually after 3 weeks vs untreated controls (100% = plants have died, 0% = like control plants)
[28] = Setaria viridis, 504 h, dosage 20 g/ha
[29] = Tripleurospermum inodorum, 504 h, dosage 20 g/ha

SMILES: CCn1nnnc1NC(=O)c1ccc(C(F)F)c(C(=O)NC)c1SC [Example 2-87]
- Post-emergence action against SETVI in % (SETVI [1]; dosage 5 g/ha): 80%
- Post-emergence action against SETVI in % (SETVI [1]; dosage 20 g/ha): 80%
- Post-emergence action at 20 g/ha against AVEFA in % (AVEFA [2]): 80%
- Pre-emergence action against MATIN in % (MATIN [3]; dosage 20 g/ha): 90%
- Pre-emergence action against MATIN in % (MATIN [3]; dosage 80 g/ha): 90%
- Pre-emergence action against VIOTR in % (VIOTR [4]; dosage 20 g/ha): 90%
- Pre-emergence action against VIOTR in % (VIOTR [4]; dosage 80 g/ha): 90%
- Pre-emergence action against PHBPU in % (PHBPU [5]): 80%
- Pre-emergence action against AMARE in % (AMARE [6]; 20 g/ha, scored visually after 3 weeks vs untreated controls, 100% = plants have died, 0% = like control plants): 100%
- Pre-emergence action against AMARE in % (AMARE [6]; [27]): 100%
- Pre-emergence action against ABUTH (herbicidal activity) (ABUTH [7]; [27]): 100%
- Pre-emergence action against ABUTH (herbicidal activity in percent) (ABUTH [7]; dosage 20 g/ha, scored visually after 3 weeks vs untreated controls, 100% = plants have died, 0% = like control plants): 100%
- Post-emergence action against ABUTH in % (ABUTH [8]; dosage 5 g/ha): 90%
- Post-emergence action against ABUTH in % (ABUTH [8]; dosage 20 g/ha): 90%
- Post-emergence action at 20 g/ha against AMARE in % (AMARE [9]): 90%
- Post-emergence action against HORMU in % (HORMU [10]): 80%
- Post-emergence action against STEME in % (STEME [11]; 20 g/ha): 90%
- Post-emergence action against STEME in % (STEME [11]; dosage 5 g/ha): 80%
- Post-emergence action against VIOTR in % (VIOTR [12]; 20 g/ha): 100%
- Post-emergence action against MATIN in % (MATIN [13]; dosage 5 g/ha): 80%
- Post-emergence action against MATIN in % (MATIN [13]; dosage 20 g/ha): 90%
- Pre-emergence action against ALOMY (herbicidal activity) (ALOMY [14]; [27]): 80%
- Pre-emergence action against ECHCG in % (ECHCG [15]; 20 g/ha): 80%
- Pre-emergence action against ECHCG in % (ECHCG [15]; 80 g/ha): 100%
- Pre-emergence action against DIGSA in % (DIGSA [16]; dosage 20 g/ha): 100%
- Pre-emergence action against DIGSA in % (DIGSA [16]; dosage 80 g/ha): 100%
- Post-emergence action against ECHCG in % (ECHCG [17]; dosage 5 g/ha): 80%
- Post-emergence action against ECHCG in % (ECHCG [17]; dosage 20 g/ha): 80%
- Pre-emergence action against STEME in % (STEME [18]; dosage 20 g/ha): 100%
- Pre-emergence action against STEME in % (STEME [18]; dosage 80 g/ha): 100%
- Post-emergence action against PHBPU in % (PHBPU [19]; dosage 5 g/ha): 80%
- Post-emergence action against PHBPU in % (PHBPU [19]; dosage 20 g/ha): 80%
- Pre-emergence action against AVEFA in % (AVEFA [20]; 80 g/ha): 90%
- Post-emergence action against DIGSA in % (DIGSA [21]; 5 g/ha): 90%
- Post-emergence action against DIGSA (DIGSA [21]; 20 g/ha): 90%
- Post-emergence action against VERPE in % (VERPE [22]): 80%
- Pre-emergence action against LOLRI in % (LOLRI): 80%
- Pre-emergence action against SETVI in % (SETVI [23]; dosage 80 g/ha): 100%
- Post-emergence action against ALOMY in % (ALOMY [24]): 80%
- Pre-emergence action against HORMU in % (HORMU [25]): 80%
- Pre-emergence action against VERPE in % (VERPE [26]): 90%

SMILES: Cn1nnnc1NC(=O)c1ccc(C(F)(F)F)c(C(=O)NC2CC2)c1Cl [Example 1-131]
- pest or weed control at 20 g/ha (SETVI [1]; [28]): 100%
- pest or weed control at 20 g/ha (AVEFA [2]; Avena fatua, 504 h): 80%
- pest or weed control at 20 g/ha (MATIN [3]; [29]): 100%
- pest or weed control at 80 g/ha (MATIN [3]; Tripleurospermum inodorum, 504 h, dosage 80 g/ha): 100%
- pest or weed control at 20 g/ha (VIOTR [4]; Viola tricolor, 504 h, dosage 20 g/ha): 100%
- pest or weed control at 80 g/ha (VIOTR [4]; Viola tricolor, 504 h, dosage 80 g/ha): 100%
- pest or weed control at 20 g/ha (AMARE [6]; Amaranthus retroflexus, 504 h, 20 g/ha, scored visually after 3 weeks vs untreated controls, 100% = plants have died, 0% = like control plants): 100%
- pest or weed control at 80 g/ha (AMARE [6]; Amaranthus retroflexus, 504 h, 80 g/ha, scored visually after 3 weeks vs untreated controls, 100% = plants have died, 0% = like control plants): 100%
- pest or weed control at 80 g/ha (ABUTH [7]; Abutilon theophrasti, 504 h, 80 g/ha, scored visually after 3 weeks vs untreated controls (100% = plants have died, 0% = like control plants)): 100%
- pest or weed control at 20 g/ha (ABUTH [7]; Abutilon theophrasti, 504 h, dosage 20 g/ha, scored visually after 3 weeks vs untreated controls, 100% = plants have died, 0% = like control plants, read-out: Pre-emergence action against ABUTH (herbicidal activity in percent)): 100%
- pest or weed control at 5 g/ha (ABUTH [8]; Abutilon theophrasti, 504 h, dosage 5 g/ha): 90%
- pest or weed control at 20 g/ha (ABUTH [8]; Abutilon theophrasti, 504 h, dosage 20 g/ha): 90%
- pest or weed control at 20 g/ha (AMARE [9]; Amaranthus retroflexus, 504 h): 100%
- pest or weed control at 20 g/ha (HORMU [10]; Hordeum murinum, 504 h): 80%
- pest or weed control at 20 g/ha (STEME [11]; Stellaria media, 504 h, 20 g/ha): 100%
- pest or weed control at 5 g/ha (STEME [11]; Stellaria media, 504 h, dosage 5 g/ha): 80%
- pest or weed control at 5 g/ha (VIOTR [12]; Viola tricolor, 504 h, 5 g/ha): 100%
- pest or weed control at 20 g/ha (VIOTR [12]; Viola tricolor, 504 h, 20 g/ha): 100%
- pest or weed control at 5 g/ha (MATIN [13]; Tripleurospermum inodorum, 504 h, dosage 5 g/ha): 90%
- pest or weed control at 20 g/ha (MATIN [13]; [29]): 90%
- pest or weed control at 80 g/ha (ALOMY [14]; Alopecurus myosuroides, 504 h, 80 g/ha, scored visually after 3 weeks vs untreated controls (100% = plants have died, 0% = like control plants)): 100%
- pest or weed control at 20 g/ha (ALOMY [14]; Alopecurus myosuroides, 504 h, 20 g/ha, scored visually after 3 weeks, 100% = plants have died, 0% = like control plants): 80%
- pest or weed control at 80 g/ha (ECHCG [15]; Echinochloa crus-galli, 504 h, 80 g/ha): 100%
- pest or weed control at 20 g/ha (DIGSA [16]; Digitaria sanguinalis, 504 h, dosage 20 g/ha): 100%
- pest or weed control at 80 g/ha (DIGSA [16]; Digitaria sanguinalis, 504 h, dosage 80 g/ha): 100%
- pest or weed control at 20 g/ha (ECHCG [17]; Echinochloa crus-galli, 504 h, dosage 20 g/ha): 90%
- pest or weed control at 20 g/ha (STEME [18]; Stellaria media, 504 h, dosage 20 g/ha): 100%
- pest or weed control at 80 g/ha (STEME [18]; Stellaria media, 504 h, dosage 80 g/ha): 100%
- pest or weed control at 20 g/ha (PHBPU [19]; Ipomoea purpurea, 504 h, dosage 20 g/ha): 90%
- pest or weed control at 80 g/ha (AVEFA [20]; Avena fatua, 504 h, 80 g/ha): 100%
- pest or weed control at 20 g/ha (AVEFA [20]; Avena fatua, 504 h, 20 g/ha, scored visually after 3 weeks, 100% = plants have died, 0% = like control plants): 80%
- pest or weed control at 5 g/ha (DIGSA [21]; Digitaria sanguinalis, 504 h, 5 g/ha): 100%
- pest or weed control at 20 g/ha (DIGSA [21]; Digitaria sanguinalis, 504 h, 20 g/ha): 100%
- pest or weed control at 80 g/ha (POLCO): 80%
- pest or weed control at 20 g/ha (VERPE [22]; Veronica persica, 504 h): 90%
- pest or weed control at 80 g/ha (LOLRI; Lolium rigidum, 504 h): 80%
- pest or weed control at 20 g/ha (SETVI [23]; [28]): 80%
- pest or weed control at 80 g/ha (SETVI [23]; Setaria viridis, 504 h, dosage 80 g/ha): 100%
- pest or weed control at 20 g/ha (ALOMY [24]; Alopecurus myosuroides, 504 h): 90%
- pest or weed control at 80 g/ha (HORMU [25]; Hordeum murinum, 504 h): 80%
